The results in this text go back to ChEMBL document CHEMBL2069252, “Pyrazole diaminopyrimidines as dual inhibitors of KDR and Aurora B kinases” (Bioorg Med Chem Lett, 2012).

The test system of one series is DOHH-2. Particulars: Homo sapiens.
Series [1] deals with T1, Protein kinase C epsilon type (Homo sapiens, UniProt Q02156).
T1 sequence (Q02156 whole entry): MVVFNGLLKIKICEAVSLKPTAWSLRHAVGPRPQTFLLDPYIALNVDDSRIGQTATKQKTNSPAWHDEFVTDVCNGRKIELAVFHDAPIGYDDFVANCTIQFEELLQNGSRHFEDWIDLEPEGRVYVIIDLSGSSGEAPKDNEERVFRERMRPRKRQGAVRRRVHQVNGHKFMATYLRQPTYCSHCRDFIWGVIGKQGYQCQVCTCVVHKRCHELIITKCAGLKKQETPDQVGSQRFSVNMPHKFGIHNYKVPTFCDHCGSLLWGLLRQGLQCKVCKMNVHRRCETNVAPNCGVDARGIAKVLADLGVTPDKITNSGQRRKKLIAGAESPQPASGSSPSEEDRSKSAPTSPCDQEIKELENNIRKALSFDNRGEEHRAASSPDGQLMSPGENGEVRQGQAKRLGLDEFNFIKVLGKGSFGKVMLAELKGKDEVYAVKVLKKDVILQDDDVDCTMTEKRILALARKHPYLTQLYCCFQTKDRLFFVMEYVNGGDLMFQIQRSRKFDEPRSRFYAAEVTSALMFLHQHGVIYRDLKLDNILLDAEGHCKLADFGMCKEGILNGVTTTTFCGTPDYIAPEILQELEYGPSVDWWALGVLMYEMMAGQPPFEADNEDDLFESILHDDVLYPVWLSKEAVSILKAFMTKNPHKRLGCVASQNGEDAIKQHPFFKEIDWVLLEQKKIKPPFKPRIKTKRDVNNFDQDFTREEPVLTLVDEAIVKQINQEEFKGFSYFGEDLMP
The series can be described thus: Inhibition of PKCepsilon by TR-FRET analysis. (In TR-FRET formats the signal depends on donor and acceptor labels being close together.)

Series [2] deals with Platelet-derived growth factor receptor alpha (Homo sapiens, UniProt P16234). Briefly: Inhibition of PDGFRalpha by TR-FRET analysis.
Sequence of Platelet-derived growth factor receptor alpha (P16234 whole entry): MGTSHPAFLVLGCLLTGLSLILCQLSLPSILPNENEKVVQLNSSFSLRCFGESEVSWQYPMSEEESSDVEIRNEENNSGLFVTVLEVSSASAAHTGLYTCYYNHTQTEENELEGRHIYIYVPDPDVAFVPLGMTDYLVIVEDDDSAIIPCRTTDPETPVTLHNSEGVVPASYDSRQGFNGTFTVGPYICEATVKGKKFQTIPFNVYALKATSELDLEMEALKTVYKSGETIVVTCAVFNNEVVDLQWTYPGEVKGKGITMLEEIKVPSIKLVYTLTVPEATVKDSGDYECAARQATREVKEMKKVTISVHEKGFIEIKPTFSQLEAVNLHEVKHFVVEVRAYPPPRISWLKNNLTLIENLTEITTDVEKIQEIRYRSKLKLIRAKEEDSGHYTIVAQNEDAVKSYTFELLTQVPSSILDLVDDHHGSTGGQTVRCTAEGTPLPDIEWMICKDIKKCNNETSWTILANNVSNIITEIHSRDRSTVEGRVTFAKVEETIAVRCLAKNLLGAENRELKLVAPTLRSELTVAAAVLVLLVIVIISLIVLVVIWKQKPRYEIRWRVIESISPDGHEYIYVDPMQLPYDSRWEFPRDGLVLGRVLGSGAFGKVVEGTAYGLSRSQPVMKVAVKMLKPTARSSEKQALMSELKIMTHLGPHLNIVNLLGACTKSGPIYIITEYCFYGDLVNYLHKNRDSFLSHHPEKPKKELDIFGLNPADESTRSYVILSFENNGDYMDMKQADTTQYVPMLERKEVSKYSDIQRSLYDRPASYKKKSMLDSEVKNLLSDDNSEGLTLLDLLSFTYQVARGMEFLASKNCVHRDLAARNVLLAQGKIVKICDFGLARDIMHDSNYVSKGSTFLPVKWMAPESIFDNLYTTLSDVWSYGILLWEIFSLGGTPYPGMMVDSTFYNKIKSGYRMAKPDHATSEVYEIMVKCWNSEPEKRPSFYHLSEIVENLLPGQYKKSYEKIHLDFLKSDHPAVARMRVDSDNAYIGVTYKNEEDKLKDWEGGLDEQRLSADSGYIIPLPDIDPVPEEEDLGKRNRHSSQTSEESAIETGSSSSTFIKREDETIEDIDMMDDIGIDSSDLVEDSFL
For series [3], the target named is Fibroblast growth factor receptor 2 (Homo sapiens, UniProt P21802). The series can be described thus: Inhibition of FGFR2 by TR-FRET analysis.
Sequence of Fibroblast growth factor receptor 2 (P21802 whole entry): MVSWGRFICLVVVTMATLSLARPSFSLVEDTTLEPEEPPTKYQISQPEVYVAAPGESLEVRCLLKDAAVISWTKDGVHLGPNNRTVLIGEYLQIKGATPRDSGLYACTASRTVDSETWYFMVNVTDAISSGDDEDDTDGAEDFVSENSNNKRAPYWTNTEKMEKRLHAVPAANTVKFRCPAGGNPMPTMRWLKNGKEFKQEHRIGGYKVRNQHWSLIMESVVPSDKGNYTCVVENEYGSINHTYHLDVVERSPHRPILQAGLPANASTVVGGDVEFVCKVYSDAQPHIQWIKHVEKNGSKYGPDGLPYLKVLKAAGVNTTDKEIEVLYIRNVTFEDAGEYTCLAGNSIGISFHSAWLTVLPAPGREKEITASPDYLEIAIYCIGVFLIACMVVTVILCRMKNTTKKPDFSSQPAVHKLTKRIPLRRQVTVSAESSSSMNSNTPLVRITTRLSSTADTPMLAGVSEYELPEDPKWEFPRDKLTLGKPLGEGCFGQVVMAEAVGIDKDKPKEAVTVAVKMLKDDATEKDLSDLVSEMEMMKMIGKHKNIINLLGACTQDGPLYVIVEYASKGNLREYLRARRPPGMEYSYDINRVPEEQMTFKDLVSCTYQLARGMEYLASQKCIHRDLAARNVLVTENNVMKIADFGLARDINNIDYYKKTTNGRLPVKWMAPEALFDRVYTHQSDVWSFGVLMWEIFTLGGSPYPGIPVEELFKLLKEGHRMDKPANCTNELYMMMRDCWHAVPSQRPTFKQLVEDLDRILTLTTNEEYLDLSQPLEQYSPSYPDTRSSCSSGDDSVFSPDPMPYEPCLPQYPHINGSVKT
Series [4] relates to Mus musculus. Briefly: Toxicity in mouse xenografted with human DOHH2 cells assessed as weight loss at 10 mg/kg, ip administered Q7d for 3 weeks. Particulars: in vivo, 504 h.
Series [5] deals with T2, Receptor-type tyrosine-protein kinase FLT3 (Homo sapiens, UniProt P36888).
T2 sequence (P36888 whole entry): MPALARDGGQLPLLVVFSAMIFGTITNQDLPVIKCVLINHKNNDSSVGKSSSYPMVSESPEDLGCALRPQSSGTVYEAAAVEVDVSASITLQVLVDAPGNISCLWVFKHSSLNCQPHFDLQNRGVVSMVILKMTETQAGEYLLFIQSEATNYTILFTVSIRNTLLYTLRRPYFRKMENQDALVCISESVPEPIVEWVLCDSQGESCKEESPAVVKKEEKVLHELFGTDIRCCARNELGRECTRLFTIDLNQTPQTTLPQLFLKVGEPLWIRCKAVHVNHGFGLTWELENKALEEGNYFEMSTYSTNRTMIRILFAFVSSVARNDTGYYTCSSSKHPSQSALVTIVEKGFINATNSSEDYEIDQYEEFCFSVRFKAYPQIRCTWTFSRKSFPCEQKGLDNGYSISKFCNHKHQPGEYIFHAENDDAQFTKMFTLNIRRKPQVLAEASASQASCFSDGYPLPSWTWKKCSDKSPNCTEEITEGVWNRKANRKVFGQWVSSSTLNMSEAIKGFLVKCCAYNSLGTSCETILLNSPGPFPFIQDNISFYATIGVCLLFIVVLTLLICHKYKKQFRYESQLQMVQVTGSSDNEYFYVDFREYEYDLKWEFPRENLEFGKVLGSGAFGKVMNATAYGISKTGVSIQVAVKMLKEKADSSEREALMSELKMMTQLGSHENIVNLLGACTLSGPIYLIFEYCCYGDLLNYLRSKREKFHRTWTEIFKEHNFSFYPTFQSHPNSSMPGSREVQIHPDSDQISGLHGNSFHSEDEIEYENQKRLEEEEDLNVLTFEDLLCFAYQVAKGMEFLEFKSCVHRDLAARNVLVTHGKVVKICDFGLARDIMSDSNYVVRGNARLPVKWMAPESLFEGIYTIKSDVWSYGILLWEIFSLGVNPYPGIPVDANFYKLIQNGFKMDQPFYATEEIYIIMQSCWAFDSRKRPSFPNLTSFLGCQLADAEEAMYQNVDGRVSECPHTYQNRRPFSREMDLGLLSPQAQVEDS
Briefly: Inhibition of Flt3 by TR-FRET analysis.

The target in another series is Wee1-like protein kinase (Homo sapiens, UniProt P30291). The series can be described thus: Inhibition of Wee1 by TR-FRET analysis.
Sequence of Wee1-like protein kinase (P30291 whole entry): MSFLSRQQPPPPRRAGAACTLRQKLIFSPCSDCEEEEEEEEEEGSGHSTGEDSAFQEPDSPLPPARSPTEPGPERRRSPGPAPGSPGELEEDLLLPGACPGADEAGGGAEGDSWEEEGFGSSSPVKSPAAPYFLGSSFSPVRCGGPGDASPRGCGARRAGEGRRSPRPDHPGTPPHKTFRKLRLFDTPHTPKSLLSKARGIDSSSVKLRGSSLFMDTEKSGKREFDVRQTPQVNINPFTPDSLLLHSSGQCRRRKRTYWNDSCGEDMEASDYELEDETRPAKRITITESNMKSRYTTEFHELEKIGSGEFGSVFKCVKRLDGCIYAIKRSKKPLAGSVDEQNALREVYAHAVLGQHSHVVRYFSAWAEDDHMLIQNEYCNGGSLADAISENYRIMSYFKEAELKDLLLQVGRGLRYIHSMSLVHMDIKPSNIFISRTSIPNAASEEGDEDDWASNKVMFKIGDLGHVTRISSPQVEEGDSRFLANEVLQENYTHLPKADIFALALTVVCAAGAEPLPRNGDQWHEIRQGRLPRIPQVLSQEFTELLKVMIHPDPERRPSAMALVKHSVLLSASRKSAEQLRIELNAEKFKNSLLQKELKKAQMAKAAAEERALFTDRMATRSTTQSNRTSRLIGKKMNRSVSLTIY
Series [6] deals with Mus musculus. Briefly: Toxicity in mouse xenografted with human DOHH2 cells assessed as mortality at 10 mg/kg, ip administered Q7d for 3 weeks. Particulars: in vivo, 504 h. A general note: A xenograft is tissue or cells of one species grown in another, often human tumour cells in immunodeficient mice.
The target of the next series is T3, Aurora kinase A (Homo sapiens, UniProt O14965).
T3 sequence (O14965 whole entry): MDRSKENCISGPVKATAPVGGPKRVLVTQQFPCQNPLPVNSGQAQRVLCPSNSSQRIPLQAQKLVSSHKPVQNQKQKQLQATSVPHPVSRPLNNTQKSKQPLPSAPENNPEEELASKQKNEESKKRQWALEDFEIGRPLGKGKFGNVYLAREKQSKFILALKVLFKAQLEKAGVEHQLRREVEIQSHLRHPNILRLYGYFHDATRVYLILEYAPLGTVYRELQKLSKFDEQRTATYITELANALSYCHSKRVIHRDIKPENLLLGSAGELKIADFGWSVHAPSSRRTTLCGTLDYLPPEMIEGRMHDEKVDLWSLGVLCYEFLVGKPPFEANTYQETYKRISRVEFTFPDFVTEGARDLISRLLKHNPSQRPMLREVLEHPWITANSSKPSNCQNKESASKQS
The series can be described thus: Inhibition of Aurora A by TR-FRET analysis.

A further series concerns NCI-H1299. The series can be described thus: Cell cycle arrest in human NCI-H1299 cells assessed as induction of polyploidy after 48 hrs by Hoechst staining-based fluorescence microscopic analysis. The format is functional. Particulars: NCI-H1299, 48 h.
The target of series [7] is Glycogen synthase kinase-3 beta (Homo sapiens, UniProt P49841). Briefly: Inhibition of GSK3beta by TR-FRET analysis.
Sequence of Glycogen synthase kinase-3 beta (P49841 whole entry): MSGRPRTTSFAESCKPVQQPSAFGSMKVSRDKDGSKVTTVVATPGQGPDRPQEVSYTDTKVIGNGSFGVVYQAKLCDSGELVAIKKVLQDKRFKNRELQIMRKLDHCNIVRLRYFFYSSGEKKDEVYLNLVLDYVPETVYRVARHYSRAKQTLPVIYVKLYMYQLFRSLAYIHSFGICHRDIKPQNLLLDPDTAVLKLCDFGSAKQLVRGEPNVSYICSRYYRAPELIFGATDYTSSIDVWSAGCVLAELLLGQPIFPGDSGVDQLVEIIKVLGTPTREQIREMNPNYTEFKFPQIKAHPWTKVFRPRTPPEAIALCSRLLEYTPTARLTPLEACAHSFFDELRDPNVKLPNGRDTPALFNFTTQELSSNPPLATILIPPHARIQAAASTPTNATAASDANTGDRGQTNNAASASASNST

Molecules are shown by their SMILES. pIC50: −log10 of the molar value. Active and inactive are the calls of the source. The rule behind the calls is not given here.

For orientation: pIC50 means the negative decadic logarithm of the IC50, by convention in mol/L. High values mean a low IC50, low ones a high IC50.

Description for DOHH-2: Antitumor activity against human DOHH2 cells xenografted in mouse tumor model assessed as tumor growth inhibition at 10 mg/kg, ip administered Q7d for 3 weeks

In the case of `Cn1cc(Nc2ncc(Br)c(N[C@H]3[C@@H](C(N)=O)[C@@H]4C=C[C@H]3C4)n2)cn1`, the TGI result in the series on DOHH-2 is “Active”. For the same compound, the pIC50 in series [1] was 7.09; in [2] it was 9.00; in [3], 8.70; in series [5], 9.00; on Wee1-like protein kinase it was 5.55; against Aurora kinase A, 8.52. The compound also gave a pIC50 in [7] of 7.47. Besides, the Activity result in the series with Mus musculus [4] and in the series with Mus musculus [6] was “Toxic” in each case. Further, the EC15 in the series on NCI-H1299 was below 3 nM.
